Values after ≈ are worked out from the molar mass of the structure shown. Values joined by “and” are separate entries in the source; they are usually repeats but may differ in a detail not shown here. Equal entries are not always repeated.
Key:
MRSA (ATCC43300) [1] = experiment: Antibacterial susceptibility test, microbroth dilution MIC; type: cell-based, methicillin-resistant Staphylococcus aureus; details: mean ± SD
[2] = system: Bacillus subtilis (NCIM 2545); parameters: method as in Yele et al., 2020, 2021; details: ref Yele et al., 2020, 2021; cited from earlier work
[3] = system: Klebsiella pneumonia (NCIM 2706); parameters: method as in Yele et al., 2020, 2021; details: ref Yele et al., 2020, 2021; cited from earlier work
MRSA (NCIM 5021) [4] = experiment: Minimum bactericidal concentration (MBC); type: cell-based, methicillin-resistant Staphylococcus aureus
Experimental: (§1) MBC can be defined as the minimum concentration of a compound required to kill the bacteria over a fixed period under precise conditions. […] Colonies were counted, and colony forming unit (CFU) per milliliter was calculated.

MRSA (ATCC43300) [5] = experiment: Minimum bactericidal concentration (MBC); type: cell-based, methicillin-resistant Staphylococcus aureus
Experimental: as §1

[6] = system: Escherichia coli (NCIM 2567); parameters: method as in Yele et al., 2020, 2021; details: ref Yele et al., 2020, 2021; cited from earlier work
[7] = system: Salmonella typhi (NCIM 2501); parameters: method as in Yele et al., 2020, 2021; details: ref Yele et al., 2020, 2021; cited from earlier work
[8] = system: Staphylococcus aureus (NCIM 5022); parameters: method as in Yele et al., 2020, 2021; details: ref Yele et al., 2020, 2021; cited from earlier work
MRSA (NCIM 5021) [9] = experiment: Antibacterial susceptibility test, microbroth dilution MIC; type: cell-based, methicillin-resistant Staphylococcus aureus; details: mean ± SD
[10] = system: Staphylococcus epidermis (NCIM 2493); parameters: method as in Yele et al., 2020, 2021; details: ref Yele et al., 2020, 2021; cited from earlier work
[11] = system: Escherichia coli (NCIM 2065); experiment: Minimum bactericidal concentration (MBC); type: cell-based; details: E. Coli (NCIM 2065); for MBC/MIC: ratio ≤2 bactericidal, ≥4 tolerance
Experimental: as §1

E. coli ParE enzyme = target: T1, E. coli ParE enzyme (Escherichia coli, UniProt P20083); experiment: E. coli ParE ATPase enzyme inhibition assay (ProFoldin kit, malachite green); type: biochemical; details: ATPase activity, mean ± SD (n = 3)
T1 construct: purchased ProFoldin, Hudson, United States
Experimental: The assay was performed as per the standard protocol provided by the ProFoldin. […] ParE hydrolyzes ATP as the source of molecular energy to perform decatenation reactions. Fluoroquinolones and aminocoumarins usually block ATPase activity to hinder the biological activities of topoisomerase II. Thus, the topoisomerase ATPase assay can be used for high-throughput screening of topoisomerase inhibitors. The ATPase activity of the E. coli ParE enzyme was based on the detection of inorganic phosphate produced by the hydrolysis of ATP in the presence of DNA. The phosphate is detected using a microplate reader at an absorbance wavelength of 650 nm. The selected compounds were tested for the inhibition of ATPase activity of ParE enzyme. […] The reaction mixture was incubated for 1 h at 37°C and then quenched with 45 μL of Dye. Incubate for 5 min, and the absorbance was measured at 650 nm. The IC50 values were determined from the absorbance readings using no enzyme and no compound controls. They were calculated using the non-linear regression curve fit method.

[12] = system: Pseudomonas aeruginosa (NCIM 2036); parameters: method as in Yele et al., 2020, 2021; details: ref Yele et al., 2020, 2021; cited from earlier work
[13] = system: Mycobacterium tuberculosis (NCIM 2984); parameters: method as in Yele et al., 2020, 2021; details: ref Yele et al., 2020, 2021; cited from earlier work
[14] = system: Escherichia coli (NCIM 2065); experiment: Antibacterial susceptibility test, microbroth dilution MIC; type: cell-based; details: E. Coli (NCIM 2065); mean ± SD
Vero cells [15] = experiment: In vitro cytotoxicity MTT assay; details: CC50 Vero cells / IC50
Vero cells [16] = system: Vero cells

T1 sequence (P20083 whole entry): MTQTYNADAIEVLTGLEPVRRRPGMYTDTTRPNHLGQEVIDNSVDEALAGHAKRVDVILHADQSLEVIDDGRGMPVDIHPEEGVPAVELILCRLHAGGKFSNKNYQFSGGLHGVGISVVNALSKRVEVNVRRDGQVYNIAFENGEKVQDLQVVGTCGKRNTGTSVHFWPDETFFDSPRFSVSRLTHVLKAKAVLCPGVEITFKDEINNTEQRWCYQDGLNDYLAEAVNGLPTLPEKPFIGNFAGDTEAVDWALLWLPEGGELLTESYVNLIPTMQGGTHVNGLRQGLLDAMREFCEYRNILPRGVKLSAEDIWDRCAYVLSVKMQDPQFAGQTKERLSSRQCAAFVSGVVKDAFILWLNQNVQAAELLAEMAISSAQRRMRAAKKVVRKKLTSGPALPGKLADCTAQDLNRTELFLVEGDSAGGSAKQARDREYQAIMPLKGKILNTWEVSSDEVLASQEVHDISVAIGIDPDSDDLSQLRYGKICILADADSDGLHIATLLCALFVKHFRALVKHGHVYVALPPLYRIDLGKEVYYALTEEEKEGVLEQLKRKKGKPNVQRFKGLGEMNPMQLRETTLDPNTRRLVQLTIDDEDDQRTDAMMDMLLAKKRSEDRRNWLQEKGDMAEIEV
T1 sequence (P0AFI2 whole entry, further chain): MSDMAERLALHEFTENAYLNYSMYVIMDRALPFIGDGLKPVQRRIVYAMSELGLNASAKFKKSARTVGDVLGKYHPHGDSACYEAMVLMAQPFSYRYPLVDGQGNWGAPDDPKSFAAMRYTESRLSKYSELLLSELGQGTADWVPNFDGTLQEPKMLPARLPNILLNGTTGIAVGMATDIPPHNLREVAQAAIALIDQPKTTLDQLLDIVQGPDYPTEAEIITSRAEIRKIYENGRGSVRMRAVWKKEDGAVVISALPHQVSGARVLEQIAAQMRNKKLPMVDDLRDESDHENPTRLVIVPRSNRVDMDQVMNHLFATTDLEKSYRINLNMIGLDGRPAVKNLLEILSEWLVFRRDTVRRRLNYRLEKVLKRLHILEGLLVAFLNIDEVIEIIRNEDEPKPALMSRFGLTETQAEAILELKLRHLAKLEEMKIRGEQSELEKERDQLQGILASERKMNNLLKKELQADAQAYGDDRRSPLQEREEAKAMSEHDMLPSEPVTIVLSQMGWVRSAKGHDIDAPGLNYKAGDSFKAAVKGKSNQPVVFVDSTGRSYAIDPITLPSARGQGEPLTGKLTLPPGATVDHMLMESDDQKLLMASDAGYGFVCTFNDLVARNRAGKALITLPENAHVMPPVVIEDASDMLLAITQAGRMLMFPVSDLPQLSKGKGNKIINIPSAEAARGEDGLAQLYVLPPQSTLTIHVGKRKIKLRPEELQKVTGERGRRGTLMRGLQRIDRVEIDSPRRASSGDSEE

For `Cc1ccc(C(=O)NNC(=O)COc2ccccc2NC(=O)CCl)cc1` [Compound 12], the Minimum inhibitory concentration (MRSA (ATCC43300) [1]) is listed as 0.96 ± 0.14 µg/mL (≈ 2.55 µM), the “Minimum inhibitory concentration (MIC) B. s” value [2] is listed as 3.72 and the “Minimum inhibitory concentration (MIC) K. p” value [3] is listed as 0.67. It also gave an MBC (MRSA (NCIM 5021) [4]) of 4.4 ± 0.15 µg/mL (≈ 11.7 µM), an MBC/MIC (MRSA (NCIM 5021) [4]) of 2 and an MBC (MRSA (ATCC43300) [5]) of 0.96 ± 0.14 µg/mL (≈ 2.55 µM). The MBC/MIC (MRSA (ATCC43300) [5]) was 1, the “Minimum inhibitory concentration (MIC) E. c” value [6] was 1.26 and the “Minimum inhibitory concentration (MIC) S. t” value [7] was 1.98. The “Minimum inhibitory concentration (MIC) S. a” value [8] was 3.12, the Minimum inhibitory concentration (MRSA (NCIM 5021) [9]) was 2.65 ± 0.46 µg/mL (≈ 7.05 µM) and the “Minimum inhibitory concentration (MIC) S. e” value [10] was 2.35. The MBC [11] was 0.86 ± 0.03 µg/mL (≈ 2.29 µM), the MBC/MIC [11] was 1 and the “IC50 against E. coli ParE enzyme” value (E. coli ParE enzyme) was 2.34 µg/mL (≈ 6.23 µM). For the same compound, the “Minimum inhibitory concentration (MIC) P. a” value [12] was 1.45, the “Minimum inhibitory concentration (MIC) M. t” value [13] was 3.21 and the Minimum inhibitory concentration [14] was 0.86 ± 0.03 µg/mL (≈ 2.29 µM).
For `O=C(COc1ccccc1NC(=O)CCl)Nc1ccc([N+](=O)[O-])cc1` [Compound 1], the Minimum inhibitory concentration (MRSA (ATCC43300) [1]) is given as 0.99 ± 0.24 µg/mL (≈ 2.72 µM), the “Minimum inhibitory concentration (MIC) B. s” value [2] is given as 3.62 and the “Minimum inhibitory concentration (MIC) K. p” value [3] is given as 0.78. For the same compound, the MBC (MRSA (NCIM 5021) [4]) was 0.84 ± 0.13 µg/mL (≈ 2.31 µM), the MBC/MIC (MRSA (NCIM 5021) [4]) was 1 and the MBC (MRSA (ATCC43300) [5]) was 0.99 ± 0.24 µg/mL (≈ 2.72 µM). The MBC/MIC (MRSA (ATCC43300) [5]) was 1, the “Minimum inhibitory concentration (MIC) E. c” value [6] was 0.75 and the “Minimum inhibitory concentration (MIC) S. a” value [8] was 2.56. The Minimum inhibitory concentration (MRSA (NCIM 5021) [9]) was 0.84 ± 0.13 µg/mL (≈ 2.31 µM), the “SI (CC50/IC50)” value (Vero cells [15]) was 216.0608 and the “Minimum inhibitory concentration (MIC) S. e” value [10] was 2.98. For the same compound, the MBC [11] was 1.42 ± 0.02 µg/mL (≈ 3.9 µM), the MBC/MIC [11] was 2 and the “IC50 against E. coli ParE enzyme” value (E. coli ParE enzyme) was 0.99 ± 0.01 µg/mL (≈ 2.72 µM). The “Minimum inhibitory concentration (MIC) P. a” value [12] was 0.69, the CC50 (Vero cells [16]) was 213.9002 µg/mL (≈ 588 µM) and the “Minimum inhibitory concentration (MIC) M. t” value [13] was 3.85. For the same compound, the Minimum inhibitory concentration [14] was 0.72 µg/mL and 0.72 ± 0.07 µg/mL.
In the case of `O=C(COc1ccccc1NC(=O)CCl)Nc1ccccc1` [Compound 9], the Minimum inhibitory concentration (MRSA (ATCC43300) [1]) is listed as 1.75 ± 0.21 µg/mL (≈ 5.49 µM), the “Minimum inhibitory concentration (MIC) B. s” value [2] is listed as 4.42 and the “Minimum inhibitory concentration (MIC) K. p” value [3] is listed as 3.81. For the same compound, the MBC (MRSA (NCIM 5021) [4]) was 4.70 ± 0.41 µg/mL (≈ 14.7 µM), the MBC/MIC (MRSA (NCIM 5021) [4]) was 3 and the MBC (MRSA (ATCC43300) [5]) was 6.29 ± 0.08 µg/mL (≈ 19.7 µM). The MBC/MIC (MRSA (ATCC43300) [5]) was 4, the “Minimum inhibitory concentration (MIC) E. c” value [6] was 4.25 and the “Minimum inhibitory concentration (MIC) S. t” value [7] was 2.35. The “Minimum inhibitory concentration (MIC) S. a” value [8] was 1.52, the Minimum inhibitory concentration (MRSA (NCIM 5021) [9]) was 1.71 ± 0.16 µg/mL (≈ 5.36 µM) and the “Minimum inhibitory concentration (MIC) S. e” value [10] was 0.98. The MBC [11] was 3.68 ± 0.29 µg/mL (≈ 11.5 µM), the MBC/MIC [11] was 2 and the “IC50 against E. coli ParE enzyme” value (E. coli ParE enzyme) was 2.80 µg/mL (≈ 8.78 µM). The “Minimum inhibitory concentration (MIC) P. a” value [12] was 3.35, the “Minimum inhibitory concentration (MIC) M. t” value [13] was 8.65 and the Minimum inhibitory concentration [14] was 1.64 ± 0.10 µg/mL (≈ 5.14 µM).
In the case of `Cc1cccc([N+](=O)[O-])c1NC(=O)COc1ccccc1NC(=O)CCl` [Compound 4], the Minimum inhibitory concentration (MRSA (ATCC43300) [1]) is given as 2.52 ± 0.37 µg/mL (≈ 6.67 µM), the “Minimum inhibitory concentration (MIC) B. s” value [2] is given as 5.97 and the “Minimum inhibitory concentration (MIC) K. p” value [3] is given as 11.90. For the same compound, the MBC (MRSA (NCIM 5021) [4]) was 8.00 ± 0.04 µg/mL (≈ 21.2 µM), the MBC/MIC (MRSA (NCIM 5021) [4]) was 3 and the MBC (MRSA (ATCC43300) [5]) was 8.76 ± 0.21 µg/mL (≈ 23.2 µM). For the same compound, the MBC/MIC (MRSA (ATCC43300) [5]) was 3, the “Minimum inhibitory concentration (MIC) E. c” value [6] was 4.45 and the “Minimum inhibitory concentration (MIC) S. a” value [8] was 4.12. The Minimum inhibitory concentration (MRSA (NCIM 5021) [9]) was 2.69 ± 0.49 µg/mL (≈ 7.12 µM), the “SI (CC50/IC50)” value (Vero cells [15]) was 169.0629 and the “Minimum inhibitory concentration (MIC) S. e” value [10] was 2.05. For the same compound, the MBC [11] was 4.71 ± 0.03 µg/mL (≈ 12.5 µM), the MBC/MIC [11] was 2 and the “IC50 against E. coli ParE enzyme” value (E. coli ParE enzyme) was 0.95 µg/mL (≈ 2.51 µM). The “Minimum inhibitory concentration (MIC) P. a” value [12] was 19.90, the CC50 (Vero cells [16]) was 163.9911 µg/mL (≈ 434 µM) and the “Minimum inhibitory concentration (MIC) M. t” value [13] was 0.75. The Minimum inhibitory concentration [14] was 2.49 ± 0.31 µg/mL (≈ 6.59 µM).

— PMC8247773, “Benzohydrazide and Phenylacetamide Scaffolds: New Putative ParE Inhibitors” (Frontiers in Bioengineering and Biotechnology, 2021)
